Measured values taken from patent US20250176599A1, “FLAVOR COMPOSITION AND FOOD AND BEVERAGE” (TAKASAGO INTERNATIONAL CORPORATION, priority 2021, published 2025).

Assays:
[1] = Sensory evaluation of aqueous solution I containing (E)-2-nonenal 1 ppb: off-flavor intensity and masking component intensity; conditions: (E)-2-nonenal 1 ppb, average score 0-4
Procedure: (§1) In ion-exchanged water, each degradation component was added to achieve the concentrations listed in Table 1, and aqueous solutions I to VI containing these degradation components were prepared.
(§2) For the aforementioned aqueous solutions containing degradation components, nootkatone was added at the concentrations listed in Table 2 to confirm the intensity of the off-flavor (masking effect) in each sample and the intensity of the masking component itself (the impact on the flavor of the food and/or beverage itself).
(§3) The test was conducted as follows. Eight experienced panelists were selected to conduct a sensory evaluation. The intensity of the off-flavor of the aqueous solution containing the degradation components derived from unsaturated fatty acids, without added masking components, was set as “Evaluation: 4.” The ion-exchanged water free of any degradation components was set as “Evaluation: 0.” The intensity of the off-flavor (masking effect) of each sample was then relatively evaluated according to the following evaluation criteria.
(§4) • Off-flavor is strongly sensed: 4 points • Off-flavor is sensed: 3 points • Off-flavor is slightly sensed: 2 points • Off-flavor is barely sensed: 1 point • Off-flavor is not sensed at all: 0 points
(§5) Also, the intensity of the masking components (impact on the flavor of the food and/or beverage itself) was absolutely evaluated according to the following evaluation criteria.
(§6) • Masking component is strongly sensed: 4 points • Masking component is sensed: 3 points • Masking component is slightly sensed: 2 points • Masking component is barely sensed: 1 point • Masking component is not sensed at all: 0 points

[2] = Sensory evaluation of aqueous solution II containing (E)-2-octenal 10 ppb: off-flavor intensity and masking component intensity; conditions: (E)-2-octenal 10 ppb, average score 0-4
Procedure: as §1, §2, §3, §4, §5, §6

[3] = Sensory evaluation of aqueous solution III containing 1-octen-3-one 1 ppb: off-flavor intensity and masking component intensity; conditions: 1-octen-3-one 1 ppb, average score 0-4
Procedure: as §1, §2, §3, §4, §5, §6

[4] = Sensory evaluation of aqueous solution IV containing 1,5-octadien-3-one 100 ppt: off-flavor intensity and masking component intensity; conditions: aqueous solution IV, 1,5-octadien-3-one 100 ppt, average score 0-4
Procedure: as §1, §2, §3, §4, §5, §6

[5] = Sensory evaluation of aqueous solution V containing 1-octen-3-ol 10 ppb: off-flavor intensity and masking component intensity; conditions: 1-octen-3-ol 10 ppb, average score 0-4
Procedure: as §1, §2, §3, §4, §5, §6

[6] = Sensory evaluation of aqueous solution VI containing 1,5-octadien-3-ol 10 ppb: off-flavor intensity and masking component intensity; conditions: aqueous solution VI, 1,5-octadien-3-ol 10 ppb, average score 0-4
Procedure: as §1, §2, §3, §4, §5, §6

[7] = Overall conclusion of the sensory evaluation across aqueous solutions I to VI
Procedure: as §1, §2, §3, §4, §5, §6

C=CC(C)(CCC=C(C)C)OC(=O)CCC (centres unmarked) [Linalyl Butyrate, linalyl butyrate]
Off-Flavor Intensity ([1]; 1 ppb added): 2.6 points | Off-Flavor Intensity ([1]; 1 ppm added): 1.3 points | Off-Flavor Intensity ([1]; 5 ppm added): 1.0 points | Off-Flavor Intensity ([1]; 10 ppb added): 2.3 points | Off-Flavor Intensity ([1]; 10 ppt added): 3.4 points | Off-Flavor Intensity ([1]; 50 ppb added): 2.0 points | Off-Flavor Intensity ([1]; 100 ppb added): 1.9 points | Off-Flavor Intensity ([1]; 100 ppt added): 3.1 points | Off-Flavor Intensity ([1]; 500 ppb added): 1.3 points | Off-Flavor Intensity ([2]; 1 ppb added): 2.3 points | Off-Flavor Intensity ([2]; 1 ppm added): 0.6 points | Off-Flavor Intensity ([2]; 5 ppm added): 0.4 points | Off-Flavor Intensity ([2]; 10 ppb added): 1.8 points | Off-Flavor Intensity ([2]; 10 ppt added): 3.1 points | Off-Flavor Intensity ([2]; 50 ppb added): 1.5 points | Off-Flavor Intensity ([2]; 100 ppb added): 1.4 points | Off-Flavor Intensity ([2]; 100 ppt added): 2.8 points | Off-Flavor Intensity ([2]; 500 ppb added): 0.9 points | Off-Flavor Intensity ([3]; 1 ppb added): 2.6 points | Off-Flavor Intensity ([3]; 1 ppm added): 1.5 points | Off-Flavor Intensity ([3]; 5 ppm added): 1.0 points | Off-Flavor Intensity ([3]; 10 ppb added): 2.3 points | Off-Flavor Intensity ([3]; 10 ppt added): 3.5 points | Off-Flavor Intensity ([3]; 50 ppb added): 1.9 points | Off-Flavor Intensity ([3]; 100 ppb added): 1.9 points | Off-Flavor Intensity ([3]; 100 ppt added): 3.3 points | Off-Flavor Intensity ([3]; 500 ppb added): 1.8 points | Off-Flavor Intensity ([4]; 1 ppb added): 2.9 points | Off-Flavor Intensity ([4]; 1 ppm added): 0.9 points | Off-Flavor Intensity ([4]; 5 ppm added): 0.9 points | Off-Flavor Intensity ([4]; 10 ppb added): 2.6 points | Off-Flavor Intensity ([4]; 10 ppt added): 3.6 points | Off-Flavor Intensity ([4]; 50 ppb added): 2.1 points | Off-Flavor Intensity ([4]; 100 ppb added): 1.6 points | Off-Flavor Intensity ([4]; 100 ppt added): 3.0 points | Off-Flavor Intensity ([4]; 500 ppb added): 1.3 points | Off-Flavor Intensity ([5]; 1 ppb added): 2.6 points | Off-Flavor Intensity ([5]; 1 ppm added): 1.0 points | Off-Flavor Intensity ([5]; 5 ppm added): 0.8 points | Off-Flavor Intensity ([5]; 10 ppb added): 2.3 points | Off-Flavor Intensity ([5]; 10 ppt added): 3.3 points | Off-Flavor Intensity ([5]; 50 ppb added): 2.1 points | Off-Flavor Intensity ([5]; 100 ppb added): 1.9 points | Off-Flavor Intensity ([5]; 100 ppt added): 3.0 points | Off-Flavor Intensity ([5]; 500 ppb added): 1.3 points | Off-Flavor Intensity ([6]; 1 ppb added): 2.0 points | Off-Flavor Intensity ([6]; 1 ppm added): 0.5 points | Off-Flavor Intensity ([6]; 5 ppm added): 0.1 points | Off-Flavor Intensity ([6]; 10 ppb added): 1.8 points | Off-Flavor Intensity ([6]; 10 ppt added): 2.5 points | Off-Flavor Intensity ([6]; 50 ppb added): 1.5 points | Off-Flavor Intensity ([6]; 100 ppb added): 1.3 points | Off-Flavor Intensity ([6]; 100 ppt added): 2.4 points | Off-Flavor Intensity ([6]; 500 ppb added): 0.9 points | concentration that masks the off-flavor and does not affect the flavor of the food and/or beverage itself, lower limit [7]: ≥ 10 ppt | concentration that masks the off-flavor and does not affect the flavor of the food and/or beverage itself, upper limit [7]: ≤ 1 ppm
